In this assay the test system is IgE production against ovalbumin (OVA). The assay can be described thus: Suppressive effect on the IgE production against ovalbumin (OVA); anti-OVA IgE antibody titer (PCA titer). In kind it is in vivo. The note with it: BALB/c mice immunized with OVA; oral dose 40 mg/kg for 10 days; titer = n where serum PCA-positive till 2^n dilution. On the procedure:
Suppressive Effect on the IgE Production Against Ovalbumin (OVA)
BALB/c mice (female, 8-10 weeks old) and Wistar rats (female, 8-10 weeks old) which were bought from Japan SLC, Inc. (Shizuoka) were used.
BALB/c mice were immunized by an intraperitoneal administration of 0.2 ml suspension of 2 μg of ovalbumin (OVA) and 2 mg of aluminium hydroxide gel in physiological saline. After 10 days, blood was collected from hearts, then sera were separated and stocked at −40° C. till the measurement of IgE antibody titer.
After the compound of the present invention was dissolved or suspended in N,N-dimethylacetoamide, the mixture was diluted 20 times with miglyol 812 neutral oil. The obtained solution was orally administered to mice at 0.1 ml per mouse (dose 40 mg/kg). The administration was continued for 10 days from the immunizing day to the day before the blood collection.
4) Mesurement of Anti-OVA IgE Antibody Titer (PCA Titer)
The obtained mouse serum was 2-fold diluted with physiological saline, then each 50 μl the solution was intradermally injected at dorsal skin of Wistar rats which previously hair cut. […] The rats were sacrified 30 minutes later and the highest dilution giving bluing with a diameter of 5 mm or more was recorded as the PCA titer. […]

Structures are written as SMILES. Bounds are passed on as bounds.

With `Cc1c(C)c(-c2ccc(NC(C)C)nc2)c(C)c(C)c1-c1ccc(NC(C)C)nc1` [Compound 169], the “PCA (anti-OVA IgE antibody titer, PCA titer)” value was below 0.
